How the values were obtained:
[1] = Radio-stability in physiological buffer by radioHPLC; assay type: physicochemical
Protocol: Mito10-MAG3 was radiolabeled with ^99mTc, using a protocol previously reported with minor modifications. Specifically, an aliquot of Mito10-MAG3 (30 μg) was re-suspended in 450 μl of freshly prepared labeling solution containing 7.5 mg tartaric acid, 9.5 mg ammonium acetate, 10 μg stannous chloride, pH 8.3. After the addition of ^99mTc pertechnetate (3 mCi), the labeling mixture was incubated at 65° C. for one hour. For quality control purposes, the radiolabeled product was routinely analyzed by radioHPLC (4.6×250 mm C18 reversed phase column) at room temperature, with the following method.
Buffer A contained 10 mM phosphate buffer (pH 6.8) and buffer B contained 100% acetonitrile. A baseline of 90% A and 10% B was run for 10 min, followed by a linear gradient with the mobile phase reaching 10% A and 90% B at 40 min. To determine the radio-stability, the radiopharmaceutical was maintained in physiological buffer for up to 48 hours, and the radiochemical purity was examined by radioHPLC.

[2] = system: DMBA-induced breast carcinoma; experiment: In vivo gamma camera imaging of DMBA-induced breast carcinoma in rats; set-up: species or system rats (female Sprague Dawley)
Protocol: The animal protocol was approved by institutional IACUC review and followed NIH guidelines. The rat model of DMBA-induced breast carcinoma was used.
As an initial feasibility study, rats were induced with 65 mg/kg DMBA dissolved in sesame oil via a single oral gavage to the stomach. […] Static images were acquired on a GE XRT gamma camera using a high-resolution parallel-hole collimator, 512×512 matrix size, 22.5×22.5 cm field of view, 140±15 keV energy window, 100 k counts. Unexpectedly, apart from the established palpable carcinomas, additional small (millimeter size) tumors were discovered by this imaging technique in the same animals. This finding promoted a longitudinal study to investigate the early detection of neoplastic growth using ^99mTc-Mito10-MAG3.
Six 48-day-old female rats were injected with 65 mg/kg DMBA. At each week after DMBA induction, the rats were imaged using the following protocol. Each rat was anesthetized with 1.6% isoflurane in room air supplemented with oxygen. […] Dynamic images were continuously acquired at one frame per min for 90 min using the imaging parameters set forth hereinabove. The weekly imaging regiment was continued for all six rats until palpable tumors became detectable, which typically takes place between seven to nine weeks after the administration of DMBA. Due to the relatively short physical half-life of ^99mTc (6 hr), no residual signal, therefore, no cross-contamination is detectable from the previous injection the week before.
(§1) ^99mTc-MIBI of clinical formulation was purchased from Bristol Myers Squibb. […] Dynamic images were acquired in identical fashion following 99mTc-MIBI injection.
The female Sprague Dawley rats have six pairs of mammary glands, among which glands a and b are away from the hepatic/gastrointestinal region. (FIG. 9, Panel A). Since the typical biodistribution of a lipophilic radiopharmaceutical in the abdominal region precludes reliable imaging of breast tissues below the diaphragm, mammary glands shown in Panels C, D, E and F were excluded from the data analysis. This exclusion also was based on the fact that such spatial distribution of mammary glands is irrelevant to that of the human anatomy.
Imaging data analysis was carried out using an inbuilt software, by carefully drawing a region of interest (ROI) on the tumor site to determine the radioactivity counts in the ROI. […] Radioactivity counts were determined in each ROI. Tumor-to-normal and tumor-to-muscle ratios were calculated as the count ratio between the two ROIs.
The rats were sacrificed by CO2 asphyxiation and the number and location of the mammary tumors were recorded at necropsy. The tumors were dissected, with the diameter and weight measured and documented. […]

[3] = Comparative study: myocardial and hepatic uptake of 99mTc-MIBI versus 99mTc-Mito10-MAG3; assay type: in vivo, rats; conditions: rats
Protocol: as §1
In a comparative study, the myocardial uptake of ^99mTc-MIBI peaked at 2.70±0.4% ID/g within minutes after injection, and remained above 2.41±0.3% ID/g for at least 90 min. Comparatively, the myocardial uptake level of ^99mTc-Mito10-MAG 3 is 10, 40, and 120 fold lower than the uptake level of ^99mTc-MIBI at 3, 10 and 30 min after injection. The hepatic uptake of ^99mTc-MIBI was at 0.37±0.14% ID/g at 30 min after injection.

SMILES: CC(=O)[S+]1CC(=O)[N]2CC(=O)[N]3CC(=O)[N](CC(=O)NCCCCCCCCCC[P+](c4ccccc4)(c4ccccc4)c4ccccc4)[99Tc]321=[O].[Br-] (centres unmarked) [^99mTc-Mito10-MAG3]
- time radioactivity bound to Mito10-MAG3 remained persistent after labeling ([1]; physiological solution, radioHPLC): at least 48 hours
- change in radiochemical purity after radiolabeling ([1]; radioHPLC at 0, 24 and 48 hr after radiolabeling): no significant change in radiochemical purity
- uptake in small breast tumors that escaped detection by palpation ([2]; 15 μg via tail vein, gamma camera): significant focal uptake
- weight of small non-palpable tumor detected by imaging ([2]; feasibility experiment, 11 weeks after DMBA induction, at dissection): 18 mg
- reduction of uptake in the myocardium compared to 99mTc-MIBI [3]: one to two orders of magnitude

Source: patent US8388931B2, “99m Tc-labeled triphenylphosphonium derivative contrasting agents and molecular probes for early detection and imaging of breast tumors” (priority 2008, dated 2013)
